Source: US8338663B2 (priority 2001, dated 2012)

What was measured:
[1] = test system: Phytophthora infestans; format: cell-based; conditions: for inhibition of mycelium growth: 2% and 0.2% (v/v) in Plich medium, isolate VK98014, day 3, 5 and 7; for effect on mycelium growth at the lowest concentration: 0.002% (=20 ppm) in Plich medium, isolate VK98014, day 3 and 5; for effect on mycelium growth through the vapour phase: 0.2% added to the medium in the adjacent wells, isolate VK98014
[2] = biological target: T1, H64NORS linalool/nerolidol synthase, cultivated strawberry, recombinant his-tag purified, no targeting signal, SEQ ID NO: 19 (Fragaria x ananassa, UniProt P0CV94); experiment: Kinetic characterisation of the his-tag purified H64NORS-encoded protein; format: biochemical, cultivated strawberry (Fragaria×ananassa Duch. cv. Elsanta); conditions: read-out: Km for GPP
T1 sequence (P0CV94 1-519): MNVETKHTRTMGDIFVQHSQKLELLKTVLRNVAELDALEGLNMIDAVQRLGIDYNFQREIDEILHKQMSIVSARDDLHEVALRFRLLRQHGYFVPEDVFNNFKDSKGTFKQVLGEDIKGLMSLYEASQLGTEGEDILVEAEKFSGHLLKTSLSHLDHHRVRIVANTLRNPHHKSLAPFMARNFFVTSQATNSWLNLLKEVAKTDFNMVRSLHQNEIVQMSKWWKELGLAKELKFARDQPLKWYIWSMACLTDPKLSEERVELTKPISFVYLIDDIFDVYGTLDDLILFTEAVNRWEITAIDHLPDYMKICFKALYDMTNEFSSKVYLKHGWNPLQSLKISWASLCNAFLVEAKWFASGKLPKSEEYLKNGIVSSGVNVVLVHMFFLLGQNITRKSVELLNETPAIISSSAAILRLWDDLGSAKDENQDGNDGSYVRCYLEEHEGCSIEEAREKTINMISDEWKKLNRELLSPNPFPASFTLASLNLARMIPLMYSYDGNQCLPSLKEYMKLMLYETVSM
Protocol: The pRSETB vector harboring the H64MUT or H64NORS was used to transform E. coli strain BL21 Gold DE3 pLysE (Stratagene) as described by the manufacturer. For bacterial expression typically 1 ml of overnight liquid culture grown at 37° C. in Luria Broth (LB) medium (10 g/l tryptone, 5 g/l yeast extract, 5 g/l NaCl) supplemented with 100 mg/l ampicillin was diluted 50 times in the same medium and grown until the OD600 reached 0.4 (at 37° C.). At this stage IPTG was added to a final concentration of 1 mM in order to induce expression. After overnight growth at 16° C. the cells were harvested by centrifugation at 4000×g for 15 min. […] The cells were further processed as described by the Ni-NTA Spin Columns manufacturers (QIAGEN) for protein purification under native conditions. First elute from the column (200 μl) was further used for enzymatic activity assays.
For determination of terpene synthase identity, the His-tag purified enzymes (prepared as described above under Example 4.6) were diluted 10-fold with buffer A containing 15 mM MOPSO (pH 7.0), 10% glycerol, 10 mM MgCl2, 1 mM sodium ascorbate and 2 mM DTT. […]
The samples were also analysed by GC-MS using a HP 5890 series II gas chromatograph equipped with an HP5-MS column (30 m×0.25 mm i.d., 0.25 μm df) and HP 5972A Mass Selective Detector (Hewlett-Packard). […]

[3] = test system: Fusarium verticillioides spores; experiment: Spectrophotometric assay of Fusarium spore germination; format: cell-based; conditions: 10^5 spores/ml in Czapek Dox medium, day 3
Protocol: A spectrophotometric assay was used to monitor the onset of germination of Fusarium verticillioides spores (isolates: ITEM2282, MRC3235, MRC826, MRC826-2) in solution. The spores were diluted to a concentration of 10^5 spores/ml in Czapek Dox medium and mixed with 8-4000 ppm of linalool or nerolidol.

[4] = test system: Phytophthora infestans (isolate VK98014); format: cell-based
[5] = test system: Fusarium graminearum, Fusarium culmorum, F. verticillioides strain MRC826; format: cell-based, Fusarium spp.
[6] = test system: Botrytis cinerea isolated from grape and strawberry; experiment: Effects of linalool and nerolidol on Botrytis mycelial growth; format: cell-based; conditions: day 7
Protocol: Botrytis. Nerolidol and linalool were tested in a range of concentrations (10-5000 ppm) alone and in combination through the addition to Plich medium in 6 well plates (3 ml per well). In the case of comparing the application of nerolidol and linalool alone to the combination of the two compounds, 100 ppm of the single compound was for example compared to 50+50 ppm of the two compounds together. One 6 well plate per compound was used with two different concentrations in triplicate. All wells were inoculated with a mycelium plug of Botrytis cinerea isolated from grape and strawberry and incubated at 20° C. Each day the radial growth of the mycelium was measured. The mycelium growth of all Botrytis isolates was inhibited at concentrations above 10 ppm.

[7] = test system: Phytophthora infestans (isolate VK98014); format: cell-based; conditions: linalool versus farnesol
[8] = test system: Phytophthora infestans; format: in vivo; conditions: cultivar Bintje, 0.05% (v/v) solution vacuum-infiltrated (ca. 0.0125% in leaves), 4 isolates, after 7 days
[9] = test system: Agrobacterium tumefaciens; experiment: Transformation of Agrobacterium with H64NORS binary vector (nerolidol formed from endogenous FPP); format: cell-based; conditions: inferred: no colonies obtained after transformation of 2 strains with H64NORS
[10] = substrate: CC(C)=CCC/C(C)=C/CC/C(C)=C/CO[P@@](=O)(O)OP(=O)(O)O; experiment: purified protein, by the assay type; conditions: pH 7.0

With `CC(C)=CCCC(C)=CCCC(C)=CCO` [Farnesol, reference compound] the “inhibition of mycelium growth” value [1] was “partial inhibition”.

Work on `CC(C)=CCC/C(C)=C/COP(=O)(O)OP(=O)(O)O` [GPP, geranyl diphosphate] yielded a Km [2] of over 50 µM.

In the case of `C=CC(C)(O)CCC=C(C)C` (stereo not shown) [linalool], the “effect on mycelium growth at the lowest concentration” value [1] is reported as “active”, the “effect on mycelium growth through the vapour phase” value [1] is reported as “equally effective through the vapour phase as through the medium” and the “inhibition of mycelium growth” value [1] is reported as “inhibited completely”. For the same molecule, the “effect on germination of spores” value ([3]; 8-4000 ppm) was “did not affect the germination of the spores at all”, the “Inhibition of mycelium growth at the lowest concentration” value ([4]; 0.002% (=20 ppm) in Plich medium, day 3 and 5) was “active even at the lowest concentration” and the “Relative effectiveness at very high concentrations” value ([5]; nerolidol versus linalool, day 7) was “more effective”. For the same molecule, the “Relative effectiveness at very high concentrations” value ([6]; linalool or the combination) was “most effective” and the “Relative activity, inhibition of mycelium growth” value [7] was “more active than farnesol”.

In the case of `C=CC(C)(O)CCC=C(C)CCC=C(C)C` (stereo not shown) [nerolidol], the “effect on mycelium growth at the lowest concentration” value [1] is reported as “strong inhibitor of mycelium growth”, the “effect on mycelium growth through the vapour phase” value [1] is reported as “negligible” and the “concentrations showing strong inhibition of germination” value ([3]; 8-4000 ppm tested) is reported as “above 250 ppm”. The “effect on mycelium growth, lesion formation and sporulation in infiltrated potato leaves” value [8] was “strongly inhibits mycelium growth, lesion formation and sporulation”, the “Relative effectiveness, inhibition of mycelium growth” value ([4]; nerolidol versus linalool) was “slightly more effective than linalool” and the “Relative effectiveness at low concentrations” value ([5]; F. graminearum and MRC826, day 7) was “slightly more effective than linalool”. For the same molecule, the “Relative effectiveness at low concentrations” value ([6]; nerolidol versus linalool) was “more effective than linalool” and the “toxicity to Agrobacterium cells” value [9] was “highly toxic”.

B1: H64NORS linalool/nerolidol synthase, cultivated strawberry, recombinant his-tag purified, no targeting signal, SEQ ID NO: 19 (Fragaria x ananassa) (protein)
chain: MNVETKHTRTMGDIFVQHSQKLELLKTVLRNVAELDALEGLNMIDAVQRLGIDYNFQREIDEILHKQMSIVSARDDLHEVALRFRLLRQHGYFVPEDVFNNFKDSKGTFKQVLGEDIKGLMSLYEASQLGTEGEDILVEAEKFSGHLLKTSLSHLDHHRVRIVANTLRNPHHKSLAPFMARNFFVTSQATNSWLNLLKEVAKTDFNMVRSLHQNEIVQMSKWWKELGLAKELKFARDQPLKWYIWSMACLTDPKLSEERVELTKPISFVYLIDDIFDVYGTLDDLILFTEAVNRWEITAIDHLPDYMKICFKALYDMTNEFSSKVYLKHGWNPLQSLKISWASLCNAFLVEAKWFASGKLPKSEEYLKNGIVSSGVNVVLVHMFFLLGQNITRKSVELLNETPAIISSSAAILRLWDDLGSAKDENQDGNDGSYVRCYLEEHEGCSIEEAREKTINMISDEWKKLNRELLSPNPFPASFTLASLNLARMIPLMYSYDGNQCLPSLKEYMKLMLYETVSM
Molecule B1 has a Km [10] of 3.2 µM.
